Results from patent US20250009734A1, “METHODS OF INHIBITING FOXO1 FOR TREATMENT OF LYMPHATIC DISORDERS” (UNIVERSITY OF SOUTH FLORIDA, priority 2023, published 2025).

Test system: human dermal lymphatic endothelial cells (hdLECs)
Assay: Western blot quantification of protein levels in cultured hdLECs
Assay type: cell-based
Conditions: 0.5 μM, 48 hours, vs vehicle control
Description: FIGS. 2A-2F. AS1842856 elevates protein expression of valve genes and promotes b-catenin nuclear localization in cultured hdLECs. (A) hdLECs were cultured under static condition and treated for 48 hours with 0.5 μM DMSO (vehicle control) or 0.5 μM AS treatment. Thereafter, proteins were extracted, and western blot perform for the indicated proteins. ACTB is the loading control. (B) Quantification results of indicated proteins in western blot from three independent experiments. (C-F) Immunostaining of cultured hdLECs for PROX1 and CTNNB1 protein. All values are mean±SEM. n=3 experiment repeats; ns=not significant; *p≤0.05, **p≤0.01, ***p≤0.001. Vehicle control: 0.5 μM DMSO for 48 hours treatment. AS1842856: 0.5 μM AS1842856 for 48 hours treatment. Cells were stained for PROX1 (green) and CTNNB1 (purple). (E) and (F) are the merged images for PROX1 and CTNNB1. Scale bar is 50 μm.
Next, the inventors performed western blot on the cells treated with 0.5 μM for 48 hours to determine whether the expression of these genes on the protein level was consistent with the PCR results. Three independent experiments of cultured hdLECs were performed, similarly to the quantitative RT-qPCR experiments. Protein levels of FOXC2, GATA2, KLF4, ITGα9, GJA4, activated β-catenin, total β-catenin, PROX1, and FOXO1 were quantified from western blot.
Human dermal lymphatic endothelial cells (hdLECs) purchased from Promocell (C-12216) were cultured in EBM-V2 (PromoCell, C-22121) media on fibronectin (20 μl/well) coated 6-well plates. hdLECs were treated with 4 different conditions: DMSO (1 μM), AS1842856 (EMD Millipore Corporation) 0.1 μM, 0.5 μM and 1 μM for 3 different time points: 24, 48, and 72 hours for qRT-PCR. For western blot, hdLECs were treated with 0.5 μM AS1842856 for 48 hours.
hdLECs were washed 3 times with 1×PBS and 1×RIPA buffer and 100× phosphatase inhibitor (Pierce™, Thermoscientific) was added. A cell scraper was used to scrape the hdLECs off the 6-well plate. hdLECs were pipetted and submerged in lysis RIPA solution. The lysate was collected in a 1.5 mL protein LoBind tube and incubated for 15 mins in ice on an orbital shaker (Belly button, IBI Scientific) for complete lysis. The lysates were then centrifuged for 20 mins at 18300 RPM at 4° C. to and the supernatant was collected in a separate Protein LoBind tube without disturbing the pellet. A Bicinchoninic acid assay (BCA assay, Pierce™, Thermofisher) was performed to calculate protein concentration according to manufacturer's instructions and 25 μg of the total protein was utilized to perform the western blot. The Invitrogen™ mini gel tank apparatus was used to run the western blot on a 4-12% Blot™ Bis Tris Plus polyacrylamide gel. Protein transfer to a PVDF membrane was carried out using an iBlot 2 dry blotting system (Lifesciences, Thermofisher) under the P0 module. The iBind Flex western system (Thermo Fisher Scientific) was used to process the mini blots utilizing an incubation time of >2.5 hours after which the blots were imaged using a Bio-Rad ChemiDoc imaging system.
Quantification analysis of western blot bands was performed in the following manner: 1. Unsaturated western blot images (.scn) were opened with Image Lab 6.1 (Bio-Rad); 2. Using the “lane and bands” tool on the left sidebar of Image Lab, the lanes were defined and adjusted manually; 3. Using the “lane and bands” tool, the bands were identified manually with “add” bands option; 4. The “lane profile” tool was used to omit background; 5. The standard and sample lanes were labeled on the “image info” tool; 6. The adjusted volume (Int) value was obtained using the “lane analysis” tool on Image Lab; 7. Each protein's band volume was normalized to the band volume of the housekeeping protein (b-Actin); 8. Relative expression of each protein was calculated by normalizing the band volume of the experimental group (AS 0.5) to its control (DMSO).

`CCn1cc(C(=O)O)c(=O)c2c(N)c(F)c(NC3CCCCC3)cc21` [AS1842856] was tested, and the “FOXC2 protein expression level” value was “significantly upregulated”, the FOXO1 protein expression was “did not change” and the “GATA2 protein expression level” value was “significantly upregulated”. The “GJA4 protein expression level” value was “significantly upregulated”, the “ITGA9 protein expression level” value was “significantly upregulated” and the “KLF4 protein expression level” value was “significantly upregulated”. The PROX1 protein level was “did not alter”, the “amount of active (non-phosphorylated) β-catenin protein” value was “increased significantly” and the “amount of p-GSK3β” value was “significantly decreased”. The “amount of total GSK3β” value was “significantly increased” and the “amount of total β-catenin protein” value was “increased significantly”.
